Results published in US20050202511A1, “AMP-activated protein kinase (AMPK) inhibitor screening assay” (priority 2002, published 2005).
Several values for one entry are separate records, joined by “and”; a condition that tells them apart may be missing. Equal values may be shown once. Read-outs that look alike come from different tables or passages of the source.

Experiments:
AMPK-γ1 CBS1-4 = target: T1, AMPK-γ1 CBS1-4 (UniProt P80385); test: Filter binding assay, GST-CBS domain fusion; design: species or system rat; conditions: for Kd: two site Hill plot model, read-out: B0.5
T1 construct: B0.5; other: two site Hill plot model; h (Hill coefficient); fused on or other part: GST at the N-terminus (pGEX-KG, glycine spacer)
Experimental: The construct was expressed in E. coli and could be purified on glutathione-Sepharose as a soluble protein of the expected size (62 kDa) in good yield (3 mg/L of culture).
DNA encoding the CBS1-4 domains of the γ1 isoform was produced using PCR with a rat y1-encoding pcDNA3 plasmid as template. The primers used were: 5′-CGCGGATCCGCGATGGAGACGGTCATTTCTTCA-3′ (sense), 5′-CCGCTCGAGCGGGGGCTTCTTCTCTCCACCTGT-3′ (antisense). The PCR products was sub-cloned into pGEX-KG as above.
(§1) Various concentrations of [^14C]-AMP, [γ^32P] […] Reactions were stopped by spotting 10 ìl onto a Millipore MF Filter Membrane disc and rapidly washing under high vacuum with 1 ml of ice-cold TBS. Radioactivity was determined on the filters by scintillation counting. Non-specific binding (which was trivial) was determined by performing the assay with GST as a control, and was subtracted. […] Data were fitted to the binding models given in the text, using GraphPad Prism 3. Estimates of parameters resulting from fits are quoted in the text and Table 1±standard error, and the curves shown in figures are theoretical curves obtained using those estimates.

AMPK-γ2 CBS1-2 (R302Q) = target: T2, AMPK-γ2 CBS1-2 (R302Q) (Homo sapiens, UniProt Q9UGJ0, R302Q); test: Filter binding assay, GST-CBS domain fusion; conditions: for Kd: single-site model
T2 construct: the N-terminal pair (CBS1-2, residues 274-410); made in house; host or cells: E. coli BL21 (DE3)
From the text: (§2) Site-directed mutagenesis was used to create the point mutation in CBS1 that causes hereditary heart disease (R302Q).
The present inventors also used site-directed mutagenesis to create four of the mutations in CBS1-2 that cause WPWS, i.e. R302Q, H383R and T400N, and Lins (which inserts a leucine residue in the linker between CBS1 and CBS2).
as §1

AMPK-γ2 CBS1-2 (WT) = target: T3, AMPK-γ2 CBS1-2 (WT) (Homo sapiens, UniProt Q9UGJ0); test: Filter binding assay, GST-CBS domain fusion
T3 construct: the N-terminal pair (CBS1-2, residues 274-410); made in house; host or cells: E. coli BL21 (DE3)
From the text: (§3) The boundaries of the CBS domains were taken from the alignments by Bateman. Using a plasmid encoding human γ2 as the template, PCR was used to produce DNAs encoding all four CBS domains (CBS1-4, residues 274-569), the N-terminal pair (CBS1-2, residues 274-410) or the C-terminal pair (CBS3-4, residues 430-556). The PCR primers had been designed to create BamHI and XhoI sites at the ends, and these were used to insert them into a vector that created a fusion protein with glutathione-S-transferase at the N-terminal end followed by a hexaglycine spacer, with the CBS domains at the C-terminus. All three constructs were expressed in E. coli and could be purified on glutathione-Sepharose as soluble proteins of the expected sizes in good yield (CBS1-4, 61 kDa, 5 mg/L of culture; CBS1-2, 43 kDa, 2 mg/L; CBS3-4, 43 kDa, 2 mg/L).
as §2, §1

AMPK-γ2 CBS3-4 (R531G) = target: T4, AMPK-γ2 CBS3-4 (R531G) (Homo sapiens, UniProt Q9UGJ0, R531G); test: Filter binding assay, GST-CBS domain fusion; conditions: for Kd: single-site model
T4 construct: the C-terminal pair (CBS3-4, residues 430-556); made in house; host or cells: E. coli BL21 (DE3)
Experimental: (§4) Site-directed mutagenesis was also used to create a point mutation in CBS4 that causes hereditary heart disease (WPWS) (R531G).
as §1

AMPK-γ2 CBS3-4 (WT) = target: T5, AMPK-γ2 CBS3-4 (WT) (Homo sapiens, UniProt Q9UGJ0); test: Filter binding assay, GST-CBS domain fusion; conditions: single-site model
T5 construct: the C-terminal pair (CBS3-4, residues 430-556); made in house; host or cells: E. coli BL21 (DE3)
From the text: as §3, §4
Various concentrations of [^14C]-AMP, [γ^32P] […] Reactions were stopped by spotting 10 ìl onto a Millipore MF Filter Membrane disc and rapidly washing under high vacuum with 1 ml of ice-cold TBS. Radioactivity was determined on the filters by scintillation counting. Non-specific binding (which was trivial) was determined by performing the assay with GST as a control, and was subtracted. […]

IMPDH2 CBS1-2 (WT) = target: T6, IMPDH2 CBS1-2 (WT) (Homo sapiens, UniProt P12268); test: Filter binding assay, isolated CBS domain pair; conditions: single-site model
T6 construct: DNAs encoding residues 112-232 or the full-length protein (1-514) were amplified; His tag (pHAT20 vector); made in house; host or cells: E. coli
From the text: To examine whether binding of adenine nucleotides is a general function for CBS domains, or is specific to the γ subunits of AMPK, IMP dehydrogenase (IMPDH) was also studied. Retinitis pigmentosa can be caused by an R224P mutation in the second CBS domain of the IMPDH1 isoform (27). However, the IMPDH2 isoform is 84% identical in amino acid sequence with IMPDH1, and the arginine mutated in retinitis pigmentosa is conserved. Because the IMPDH2 isoform is ubiquitously expressed and a suitable cDNA to use as a template for PCR was more readily available, DNA encoding the single pair of CBS domains from human IMPDH2 was cloned, an R224P mutation was created and expressed both the wild type and the mutant as His-tagged proteins in E. coli.
For IMPDH2, DNAs encoding residues 112-232 or the full-length protein (1-514) were amplified using human liver cDNA (Clontech) as template, and cloned into pHAT20 (Clontech) using 5′-AgeI and 3′-KpnI sites added to the primers. For the other constructs, DNAs encoding residues 582-840 of CLC2, or 416-551 of cystathionine â-synthase, were amplified using human liver cDNA as template, and cloned into pGEX-KG as above using 5′-BamHI and 3′-XhoI sites added to the primers. All mutations were created using the Stratagene QuikChange Site-directed Mutagenesis system.
The IMPDH2 constructs were His-tagged and were purified on chelating-Sepharose (Pharmacia) charged with 50 mM CoCl2 according to manufacturer's instructions.
Various concentrations of [^14C]-AMP, [γ^32P] […] Reactions were stopped by spotting 10 ìl onto a Millipore MF Filter Membrane disc and rapidly washing under high vacuum with 1 ml of ice-cold TBS. Radioactivity was determined on the filters by scintillation counting. Non-specific binding (which was trivial) was determined by performing the assay with GST as a control, and was subtracted. […] Data were fitted to the binding models given in the text, using GraphPad Prism 3. […]

AMPK-γ2 CBS1-4 (T400N) = target: T7, AMPK-γ2 CBS1-4 (T400N) (Homo sapiens, UniProt Q9UGJ0, T400N); test: Filter binding assay, GST-CBS domain fusion; conditions: for Kd: two site Hill plot model, read-out: B0.5
T7 construct: all four CBS domains (CBS1-4, residues 274-569); made in house; host or cells: E. coli BL21 (DE3)
Experimental: (§5) With the H383R, T400N and R531G mutants there were large increases in B0.5 (6-, 8- and 10-fold) with no significant change in Hill coefficient.
as §1

AMPK-γ2 CBS1-4 (Lins) = target: T8, AMPK-γ2 CBS1-4 (Lins) (Homo sapiens, UniProt Q9UGJ0, INS350L); test: Filter binding assay, GST-CBS domain fusion; conditions: for Kd: two site Hill plot model, read-out: B0.5
T8 construct: fused on or other part: GST at the N-terminus followed by a hexaglycine spacer (pGEX-KG)
Experimental: as §5, §1

AMPK-γ2 CBS1-4 (R302Q) = target: T9, AMPK-γ2 CBS1-4 (R302Q) (Homo sapiens, UniProt Q9UGJ0, R302Q); test: Filter binding assay, GST-CBS domain fusion; conditions: for Kd: two site Hill plot model, read-out: B0.5
T9 construct: all four CBS domains (CBS1-4, residues 274-569); made in house; host or cells: E. coli BL21 (DE3)
Experimental: as §5, §1

AMPK-γ2 CBS1-4 (H383R) = target: T10, AMPK-γ2 CBS1-4 (H383R) (Homo sapiens, UniProt Q9UGJ0, H383R); test: Filter binding assay, GST-CBS domain fusion; conditions: for Kd: two site Hill plot model, read-out: B0.5
T10 construct: all four CBS domains (CBS1-4, residues 274-569); made in house; host or cells: E. coli BL21 (DE3)
Experimental: as §5, §1

T10 sequence (Q9UGJ0 274-569 H383R): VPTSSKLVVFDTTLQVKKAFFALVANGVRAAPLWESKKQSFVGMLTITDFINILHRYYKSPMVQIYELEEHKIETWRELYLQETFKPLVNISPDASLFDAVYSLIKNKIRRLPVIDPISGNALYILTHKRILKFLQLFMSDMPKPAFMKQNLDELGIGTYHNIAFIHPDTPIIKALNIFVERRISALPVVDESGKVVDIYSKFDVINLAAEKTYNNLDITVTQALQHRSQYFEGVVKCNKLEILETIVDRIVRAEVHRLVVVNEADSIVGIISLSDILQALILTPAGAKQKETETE
T4 sequence (Q9UGJ0 430-556 R531G): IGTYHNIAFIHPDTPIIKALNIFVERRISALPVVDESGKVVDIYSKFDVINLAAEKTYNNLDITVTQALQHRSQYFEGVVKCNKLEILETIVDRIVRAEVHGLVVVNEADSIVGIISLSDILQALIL
T9 sequence (Q9UGJ0 274-569 R302Q): as the sequence (Q9UGJ0 274-569 H383R) above, with R29Q, R110H counted along it
T7 sequence (Q9UGJ0 274-569 T400N): as the sequence (Q9UGJ0 274-569 H383R) above, with R110H, T127N counted along it
T8 sequence (Q9UGJ0 with tags, fused parts or gaps INS350L): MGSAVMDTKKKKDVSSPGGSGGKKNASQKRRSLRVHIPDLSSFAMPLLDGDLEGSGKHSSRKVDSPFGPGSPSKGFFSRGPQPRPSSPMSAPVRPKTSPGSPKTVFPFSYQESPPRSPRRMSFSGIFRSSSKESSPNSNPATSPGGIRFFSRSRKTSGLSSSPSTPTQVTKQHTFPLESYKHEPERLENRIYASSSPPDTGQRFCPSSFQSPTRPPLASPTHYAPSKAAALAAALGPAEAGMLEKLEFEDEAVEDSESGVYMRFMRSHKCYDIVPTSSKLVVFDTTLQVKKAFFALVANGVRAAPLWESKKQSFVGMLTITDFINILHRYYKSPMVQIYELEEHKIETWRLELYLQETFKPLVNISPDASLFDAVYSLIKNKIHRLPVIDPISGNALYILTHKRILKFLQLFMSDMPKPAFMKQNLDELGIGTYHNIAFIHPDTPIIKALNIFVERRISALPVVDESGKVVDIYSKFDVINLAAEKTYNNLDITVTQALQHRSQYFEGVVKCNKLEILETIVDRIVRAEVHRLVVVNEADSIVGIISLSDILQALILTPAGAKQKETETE
T3 sequence (Q9UGJ0 274-410): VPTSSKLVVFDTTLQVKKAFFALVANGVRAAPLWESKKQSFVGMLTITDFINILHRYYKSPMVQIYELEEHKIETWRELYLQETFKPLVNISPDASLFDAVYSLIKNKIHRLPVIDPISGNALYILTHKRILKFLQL
T2 sequence (Q9UGJ0 274-410 R302Q): as the sequence (Q9UGJ0 274-410) above, with R29Q counted along it
T6 sequence (P12268 112-232): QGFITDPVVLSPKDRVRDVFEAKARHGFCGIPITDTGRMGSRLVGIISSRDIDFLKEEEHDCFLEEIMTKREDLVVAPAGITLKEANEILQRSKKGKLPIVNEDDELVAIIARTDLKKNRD
T5 sequence (Q9UGJ0 430-556): as the sequence (Q9UGJ0 430-556 R531G) above, with G102R counted along it

h (Hill coefficient) (AMPK-γ1 CBS1-4)	Kd (AMPK-γ1 CBS1-4) [µM]	Kd (AMPK-γ2 CBS1-2 (R302Q)) [µM]	Kd (AMPK-γ2 CBS3-4 (R531G)) [µM]	Kd (AMPK-γ2 CBS3-4 (WT)) [µM]	Kd (IMPDH2 CBS1-2 (WT)) [µM]	h (Hill coefficient) (AMPK-γ2 CBS1-4 (T400N))	Kd (AMPK-γ2 CBS1-4 (T400N)) [µM]	h (Hill coefficient) (AMPK-γ2 CBS1-4 (Lins))	Kd (AMPK-γ2 CBS1-4 (Lins)) [µM]	h (Hill coefficient) (AMPK-γ2 CBS1-4 (R302Q))	Kd (AMPK-γ2 CBS1-4 (R302Q)) [µM]	h (Hill coefficient) (AMPK-γ2 CBS1-4 (H383R))	Kd (AMPK-γ2 CBS1-4 (H383R)) [µM]	SMILES	further results
1.6±0.1 and 1.6 ± 0.2	20 ± 1	303 ± 42	1570 ± 110	104 ± 10	437 ± 53	1.8 ± 0.1	1360 ± 47	1.8 ± 0.1	130 ± 4	1.9 ± 0.2	158 ± 9	1.8 ± 0.2	725 ± 36	Nc1ncnc2c1ncn2[C@@H]1O[C@H](COP(=O)(O)O)[C@@H](O)[C@H]1O [AMP, adenosine monophosphate]	increase in Kd relative to wild type (AMPK-γ2 CBS1-2 (R302Q)): 5.7 fold and 6 fold; Kd (AMPK-γ2 CBS1-2 (WT)): 53 ± 5 µM; maximal binding (Bmax) (AMPK-γ2 CBS1-2 (WT); [14C]AMP): 0.95±0.05 moles of AMP per mole of protein; increase in Kd relative to wild type (AMPK-γ2 CBS3-4 (R531G)): 15 fold; increase in B0.5 relative to wild type (AMPK-γ2 CBS1-4 (T400N)): 22 fold; change in B0.5 relative to wild type (AMPK-γ2 CBS1-4 (R302Q)): 2.6 fold; increase in B0.5 relative to wild type (AMPK-γ2 CBS1-4 (H383R)): 12 fold
1.9 ± 0.2	119 ± 7	468 ± 86	2050 ± 150	403 ± 16	54	1.7 ± 0.2	2000 ± 160	1.8 ± 0.2	335 ± 28	1.3 and 1.3 ± 0.2	193 ± 25	2.4 ± 0.2	1470 ± 55	Nc1ncnc2c1ncn2[C@@H]1O[C@H](COP(=O)(O)OP(=O)(O)OP(=O)(O)O)[C@@H](O)[C@H]1O [ATP]	Kd (AMPK-γ2 CBS1-2 (WT); single-site model, 5 mM MgCl2 included for ATP): 175 ± 17 µM
